Entries after “also recorded” stand apart in the source; their conditions may differ. Residues, ends and D or L forms follow the SMILES beside them. *: point of attachment. Cbz = O=C(OCc1ccccc1)*; CH2F = FC*
How the values were obtained:
drICE = target: T1, drICE (Drosophila melanogaster, UniProt O01382); conditions: cited from earlier work
T1 sequence (O01382 29-217 limits assumed): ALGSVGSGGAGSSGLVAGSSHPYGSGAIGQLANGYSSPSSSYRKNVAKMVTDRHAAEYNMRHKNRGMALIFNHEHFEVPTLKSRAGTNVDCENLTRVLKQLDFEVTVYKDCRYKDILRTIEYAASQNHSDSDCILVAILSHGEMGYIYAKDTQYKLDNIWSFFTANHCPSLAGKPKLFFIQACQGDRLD
T1 sequence (O01382 231-339 limits assumed): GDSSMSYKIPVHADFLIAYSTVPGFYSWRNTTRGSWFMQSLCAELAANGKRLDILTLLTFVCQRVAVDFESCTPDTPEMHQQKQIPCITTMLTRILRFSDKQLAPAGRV

[1] = test system: spermatid individualization in cultured testes; experiment: Testes cultures with caspase inhibitor (spermatid individualization); type: cell-based, Drosophila; conditions: isolated testes cultured 24-26 hours at 25° C. with 30 mm Z-VAD(OMe)-FMK
Method: At least 20 testes were examined for each experiment described. Testes of young adults were dissected in testis buffer (TB) which consisted of: 10 mM Tris-HCl, pH 6.8, 183 mM KCl, 47 mM NaCl, 1 mM EDTA, and 1 mM PMSF. Dissected testes were transferred to a […] droplet of TB placed on a siliconized coverslip (GOLD SEAL), opened using thin forceps, and sandwiched with a poly-L-lysine-coated slide. The sandwich was frozen in liquid nitrogen, the coverslip was removed with a razor blade, and the slide was placed in ice-cold absolute ethanol. The slides were drained and a hydrophobic ring surrounding the opaque tissue was drawn using a PAP PEN (Zymed Laboratories Inc.). The tissue was fixed in 4% formaldehyde in PBS for 20 minutes, rinsed twice with PBS for 5 minutes, incubated in PBT (PBS+0.1% Triton X-100) for 30 minutes, and rinsed twice again. The fixed testes were then blocked with PBS/BSA (1% BSA in PBS) for 45 minutes, incubated with primary antibody (diluted in PBS/BSA) within the hydrophobic ring overnight at […] inside a humid chamber, and rinsed twice for 5 minutes in PBS. […] Caspase inhibition of IC caudal movement was determined in vitro, using isolated pairs of testes from young adult flies (n=10). […]

Drosophila S2 cells = conditions: cited from earlier work
[2] = test system: spermatid individualization and male fertility; experiment: Expression of p35 in male gonads (Hsp83-gal4 x UAS-p35): fertility test and cytological analysis; type: in vivo, Drosophila
[3] = ectopic expression of p35 in male germ cells

COC(=O)C[C@H](NC(=O)[C@H](C)NC(=O)[C@@H](NC(=O)OCc1ccccc1)C(C)C)C(=O)CF [Z-VAD, Z-VAD(OMe)-FMK] (Cbz-Val-Ala-Asp(OMe)-CH2F)
activity of drICE in vitro (drICE): blocks the activity of drICE in vitro | IC (individualization complex) translocation ([1]; versus DMSO control): no evidence of IC translocation | cystic bulge (CB) morphology / collection of cytoplasm into CBs ([1]; versus DMSO control testis of same individual): advanced CBs that appeared flat; also recorded: flat, irregular CBs | drICE-induced cell death (Drosophila S2 cells): blocks

B1: p35: baculoviral broad-spectrum caspase inhibitor p35, expressed in male gonads via the GAL4/UAS system (protein, UniProt P08160 1-299, looked up)
Early 35 kDa protein: MCVIFPVEIDVSQTIIRDCQVDKQTRELVYINKIMNTQLTKPVLMMFNISGPIRSVTRKNNNLRDRIKSKVDEQFDQLERDYSDQMDGFHDSIKYFKDEHYSVSCQNGSVLKSKFAKILKSHDYTDKKSIEAYEKYCLPKLVDERNDYYVAVCVLKPGFENGSNQVLSFEYNPIGNKVIVPFAHEINDTGLYEYDVVAYVDSVQFDGEQFEEFVQSLILPSSFKNSEKVLYYNEASKNKSMIYKALEFTTESSWGKSEKYNWKIFCNGFIYDKKSKVLYVKLHNVTSALNKNVILNTIK
CM1-staining (active drICE) [2, 3]: failing to block CM1-staining | spermatid individualization / CB and WB morphology in vivo [2, 3]: the cytoplasm failed to collect to form a normal CB; also recorded: blocked individualization; also recorded: scattered IC cones and flat CBs and WBs | IC translocation in vivo ([2]; male progeny with Hsp83-gal4 driver and UAS-p35 construct): IC translocation was severely impaired | male fertility ([2]; male progeny with Hsp83-gal4 driver and UAS-p35 construct, parental lines fertile): sterile
